Laboratory results from patent US12630501B2, “Anti-fibrotic compounds and use thereof” (HADASIT MEDICAL RESEARCH SERVICES AND DEVELOPMENT LTD., priority 2019, dated 2026).

Key:
HDAC7 = target: T1, HDAC7 (Homo sapiens, UniProt Q8WUI4); details: prostate cancer cells; cited from earlier work
T1 sequence (Q8WUI4 1-952): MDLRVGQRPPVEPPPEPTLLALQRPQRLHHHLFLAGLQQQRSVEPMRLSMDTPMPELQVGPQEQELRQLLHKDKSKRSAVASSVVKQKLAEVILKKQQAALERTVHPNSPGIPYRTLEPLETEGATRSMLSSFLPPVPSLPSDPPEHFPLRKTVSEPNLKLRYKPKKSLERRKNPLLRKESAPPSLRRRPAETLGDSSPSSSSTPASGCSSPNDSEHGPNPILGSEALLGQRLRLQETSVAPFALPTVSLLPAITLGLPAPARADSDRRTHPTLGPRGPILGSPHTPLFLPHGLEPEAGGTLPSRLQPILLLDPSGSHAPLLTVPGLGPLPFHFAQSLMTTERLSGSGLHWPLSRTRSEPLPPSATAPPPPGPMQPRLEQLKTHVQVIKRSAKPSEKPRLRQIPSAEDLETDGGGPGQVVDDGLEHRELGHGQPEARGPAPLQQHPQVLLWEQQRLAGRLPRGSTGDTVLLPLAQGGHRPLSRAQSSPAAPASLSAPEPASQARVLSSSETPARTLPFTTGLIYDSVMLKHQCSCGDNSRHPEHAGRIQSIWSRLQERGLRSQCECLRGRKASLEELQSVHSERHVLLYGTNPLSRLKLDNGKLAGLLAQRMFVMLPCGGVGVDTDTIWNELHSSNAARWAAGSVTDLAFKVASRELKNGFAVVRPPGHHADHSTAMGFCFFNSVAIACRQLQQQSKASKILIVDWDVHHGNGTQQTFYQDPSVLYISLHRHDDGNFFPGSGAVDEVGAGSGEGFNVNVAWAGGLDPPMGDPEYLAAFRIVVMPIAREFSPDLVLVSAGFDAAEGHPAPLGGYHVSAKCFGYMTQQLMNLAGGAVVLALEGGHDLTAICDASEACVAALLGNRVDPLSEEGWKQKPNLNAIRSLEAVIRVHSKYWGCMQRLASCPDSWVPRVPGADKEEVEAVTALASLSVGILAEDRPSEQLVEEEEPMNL

HDAC2 = HDAC2 (Homo sapiens, UniProt Q92769); details: prostate cancer cells; cited from earlier work
HDAC1 = HDAC1 (Homo sapiens, UniProt Q13547); details: prostate cancer cells; cited from earlier work
Ku70/FLIP complex = assay: Ku70 immunoprecipitation with FLIP immunoblot in IPF-lung myofibroblasts; format: cell-based, human; details: CMH 30 μM, 72 h
Method: Human lung myofibroblasts Differentiated fibroblasts from IPF-lungs and controls from patient lung biopsies performed for tumor diagnosis were obtained under a protocol detailed in Wallach-Dayan et al., J. Autoimmun. 59: 67-76, 2015. LL 97A (AlMy) (ATCC® CCL-191™)-IPF-lung, and LL 24 (ATCC® CCL-151™)-normal lung fibroblast cell lines were used.
Immunoprecipitation and immunoblotting Standard protocols were performed as described in Golan-Gerstl et al., Am. J. Respir. Cell Mol. Biol. 47: 271-279, 2012.
FLIP downregulation from an OD of 1.85 to 0.49 (about 3.5-fold) was detected in WB (FIG. 4F), and a […] from a mean fluorescence intensity (MFI)=10^3 to only 10^1 was detected with flow cytometry (FIG. 4G). Thus, SIRT1-mediated Ku70-deacetylation stabilizes IPF-lung myofibroblast FLIP via Ku70/FLIP complex. This effect of CMH on Ku70 further disrupts Ku70/FLIP complex and destabilizes FLIP in IPF-lung myofibroblasts.

[1] = tested on: IPF myofibroblasts of CCL-191 line; assay: Expression of specific genes in IPF myofibroblasts incubated with CMH (Table 1); format: cell-based, human; details: CCL-191 incubated with CMH; 2-^ΔΔCt, mean±standard error
Method: Table 1 below indicates the expression of specific genes in IPF myofibroblasts of CCL-191 line incubated with CMH and the vehicle, correspondingly, calculated by 2-^ΔΔCt the data is represented as mean±standard error).

Sequence of HDAC2 (Q92769 whole entry, species assumed): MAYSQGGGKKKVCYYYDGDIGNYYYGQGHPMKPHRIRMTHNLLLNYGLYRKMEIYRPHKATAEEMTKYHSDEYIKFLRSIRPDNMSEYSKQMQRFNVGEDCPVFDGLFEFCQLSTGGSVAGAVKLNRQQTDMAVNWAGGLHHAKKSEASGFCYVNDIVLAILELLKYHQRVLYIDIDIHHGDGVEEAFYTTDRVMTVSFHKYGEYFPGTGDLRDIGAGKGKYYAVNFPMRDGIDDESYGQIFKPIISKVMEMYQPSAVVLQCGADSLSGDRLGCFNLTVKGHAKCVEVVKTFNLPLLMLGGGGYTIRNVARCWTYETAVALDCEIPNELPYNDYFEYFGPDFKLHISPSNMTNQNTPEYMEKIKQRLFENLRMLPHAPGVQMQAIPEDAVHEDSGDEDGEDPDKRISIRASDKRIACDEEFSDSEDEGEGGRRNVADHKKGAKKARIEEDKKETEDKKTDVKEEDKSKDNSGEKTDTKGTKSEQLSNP
Sequence of HDAC1 (Q13547 whole entry, species assumed): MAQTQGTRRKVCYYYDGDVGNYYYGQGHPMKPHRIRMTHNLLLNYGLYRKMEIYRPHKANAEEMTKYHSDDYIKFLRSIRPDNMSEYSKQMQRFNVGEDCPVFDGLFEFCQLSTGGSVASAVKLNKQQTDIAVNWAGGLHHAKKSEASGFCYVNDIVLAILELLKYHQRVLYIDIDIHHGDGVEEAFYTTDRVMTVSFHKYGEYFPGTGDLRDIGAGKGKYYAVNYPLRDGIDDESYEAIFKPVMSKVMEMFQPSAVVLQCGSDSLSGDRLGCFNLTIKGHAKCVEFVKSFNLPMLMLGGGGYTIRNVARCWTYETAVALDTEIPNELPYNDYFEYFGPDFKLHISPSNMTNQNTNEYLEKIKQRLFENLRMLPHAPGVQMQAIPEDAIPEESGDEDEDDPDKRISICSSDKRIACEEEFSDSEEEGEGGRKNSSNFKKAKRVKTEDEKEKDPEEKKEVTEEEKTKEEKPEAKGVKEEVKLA

## Cc1cc(Cl)ccc1OCCCC(=O)NO [CMH, 4-(4-chloro-2-methylphenoxy)-N-hydroxybutanamide]
HDAC7
  Inhibition of HDAC7: not inhibited
HDAC2
  Inhibition of HDAC2: not inhibited
HDAC1
  Inhibition of HDAC1: not inhibited
Ku70/FLIP complex
  Decrease of Ku70/FLIP complex: about 1.5 fold
Ku70/FLIP complex; from 6.2
  Ku70/FLIP complex in FLIP-IB: 4.1 OD
[1]
  AIFM1 expression, M ± m: 12.3 ± 2.89
  BAX expression, M ± m: 319.29 ± 78.06
  BCL2L10 expression, M ± m: 0.13 ± 0.05
  BCL2L11 expression, M ± m: 0.58 ± 0.09
  CASP8 expression, M ± m: 7.13 ± 4.18
  CASP9 expression, M ± m: 9.57 ± 6.69
  CFLAR expression, M ± m: 3.5 ± 1.42
  CFLAR-AS1 expression, M ± m: 0.11 ± 0.04
  DIABLO expression, M ± m: 13.48 ± 3.27
  E2F1 expression, M ± m: 0.39 ± 0.21
  HIC1 expression, M ± m: 0.68 ± 0.44
  MCL1 expression, M ± m: 67.57 ± 34.04
  PPP1R13B expression, M ± m: 0.1 ± 0.05
  PRKCD expression, M ± m: 9 ± 4
  PRKCDBP expression, M ± m: 21.87 ± 9.21
  SIRT1 expression, M ± m: 0.48 ± 0.04
  TP53AIP1 expression, M ± m: 1.11 ± 0.2
  TP53INP2 expression, M ± m: 8.16 ± 0.54
  TP53 expression, M ± m: 1.8 ± 1.19
  XRCC6 expression, M ± m: 84.85 ± 22.88
